Assay results reported in US20100104628A1, “METHOD OF TREATING NEUROBLASTOMA” (priority 2007, published 2010).
Where two headings read alike, the source gives them in different places.

Assays:
IMR32 (NET 0/+) = experiment: Cytotoxicity, MTT assay, IMR32; type: cell-based; settings: 24 hr assay, 1% EtOH
NET = biological target: T1, NET (Homo sapiens, UniProt P23975); experiment: NET competitive binding assay ([125I]MIBG displacement, SK-N-SH cells); settings: 5 μM test compound, 2 hr incubation
T1 construct: endogenous in cells; host or cells: SK-N-SH neuroblastoma cells
T1 sequence (P23975 whole entry): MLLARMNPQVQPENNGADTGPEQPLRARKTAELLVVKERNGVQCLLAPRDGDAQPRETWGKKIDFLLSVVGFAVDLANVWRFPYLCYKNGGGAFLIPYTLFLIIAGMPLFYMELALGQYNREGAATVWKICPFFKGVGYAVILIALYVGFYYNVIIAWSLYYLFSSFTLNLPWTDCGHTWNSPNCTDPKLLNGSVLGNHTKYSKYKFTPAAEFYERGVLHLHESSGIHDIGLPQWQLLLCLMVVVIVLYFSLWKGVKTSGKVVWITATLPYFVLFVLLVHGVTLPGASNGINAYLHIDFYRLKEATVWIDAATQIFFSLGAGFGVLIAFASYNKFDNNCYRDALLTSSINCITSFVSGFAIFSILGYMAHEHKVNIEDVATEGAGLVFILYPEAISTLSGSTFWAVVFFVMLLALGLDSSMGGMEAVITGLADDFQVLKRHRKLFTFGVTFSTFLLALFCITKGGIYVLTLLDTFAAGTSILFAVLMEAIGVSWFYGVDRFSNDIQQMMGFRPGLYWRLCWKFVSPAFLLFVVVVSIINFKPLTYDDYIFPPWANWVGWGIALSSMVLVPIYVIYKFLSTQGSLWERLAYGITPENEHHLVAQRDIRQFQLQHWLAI
Experimental: An assay to assess binding of various MIBG-analogs to the NET was performed by published methods (Vaidynathan et al, Nucl. Med. Commun. 25:947-955 (2004), Vaidynathan et al, Bioorg. Med. Chem. 12:1649-1656 (2004), Vaidynathan et al, Bioconjugate Chem. 12:798-806 (2001), Vaidynathan et al, Eur. J. Nucl. Med. Mol. Imaging 31:1362-1370 (2004)). In brief, neuroblastoma SK—N—SH cells (moderate levels of NET) were treated with [^125I]MIBG and with increasing concentrations of unlabeled MIBG or MIBG-analogs. At the end of a 2 hr incubation and appropriate work-up, the cell-bound radioactivity was counted. Total cell-bound radioactivity minus non-specific cell-bound radioactivity gave a value for specific binding which was plotted in FIG. 9 against the concentration of test compounds. At 5 μM, cold MIBG displaced “100%” of the labeled-MIBG (i.e., “zero” cell-bound radioactivity). At 5 μM, chloromethyl-MIBG displaced 83%; the disulfide MIBG-SS-ethyl and the ester MIBG-phenylbutyrate displaced 50-55%; and hydroxymethyl-MIBG displaced 27%.

SK—N-BE(2c) (high NET) = experiment: Glutathione depletion in vitro, SK-N-BE(2c); type: cell-based
Experimental: (§1) The NB cell line SK—N-BE(2c) (high net) was treated with MIBG, MIBG-disulfide dimer (MIGB-S—S-MIBG), chloromethyl-MIBG (cmMIBG), and BSO. For comparison, the human breast cancer line MCF7 (no NET) was treated with chloromethyl-MIBG and BSO. At specific times, intracellular glutathione in drug-treated cells was determined relative to that in untreated cells (control).
SK—N-BE(2c) (high NET) cells were treated with a single concentration of chloromethyl-MIBG (25 μM at t=0). Glutathione concentrations in treated and untreated cells were measured at t=0.5, 1, 2, 3 and 4 hrs. Glutathione levels in drug-treated cells progressively fell, with a concentration 50% that of control at t 4 hrs (FIG. 10B).
(§2) Cells were exposed to 5 μM chloromethyl-MIBG (cmMIBG), 25 μM BSO and a combination of 5 μM chloromethyl-MIBG+25 μM BSO (both) for 7 hrs. Compared to controls, chloromethyl-MIBG alone depleted glutathione by about 30% in SK—N—Be(2c) cells and 8% in MCF7. BSO, as expected, depleted MCF7 and SK—N—Be(2c) by similar amounts (42 and 54% of controls, respectively). In combination studies, chloromethyl-MIBG+BSO depleted levels by about 85% in the SK—N—Be(2c) cells and had much less effect on the MCF7 cells with glutathione reduced by 49% relative to controls.

SK-N-BE(2c) (NET ++++) = experiment: cells; type: cell-based
MCF7 (NET 0) = experiment: in vitro; type: cell-based, human
MCF7 (no NET) = experiment: Glutathione depletion in vitro, MCF7; type: cell-based, human; settings: 5 μM chloromethyl-MIBG, 7 hrs
Experimental: as §1, §2

[1] = Maximum tolerated dose (MTD) study in mice; type: in vivo
Experimental: The MTD study utilized 4 groups of 5 HRLN female nu/nu mice. Mice in each group were injected i.v. with a single dose of chloromethyl-MIBG in 1% DMSO in water [5, 10, 15, or 20 mg/kg (drug/animal)]. Drug solutions were made fresh at room temperature and injections were completed within 20 minutes of making the drug solution (under these conditions, the half-life of chloromethyl-MIBG was estimated to be >10 hrs). The dosing volume was 0.20 mL/20 g mouse (adjusted accordingly for body weight). Animals were followed for 21 days post-injection; body weight was monitored daily for 5 days and then biweekly. The “endpoint MTD” was defined as a mean weight loss of >20% or death of >10% of animals in a group.

SK-N-MC (NET ++) = experiment: Cytotoxicity, MTT assay, SK-N-MC; type: cell-based; settings: 24 hr assay, 1% EtOH
[2] = Stability / reaction kinetics by proton NMR (half-life); type: physicochemical
Excerpt: Proton NMR was used to determine the half-lives for chloro- and bromomethyl-MIBG (Table 1). These analogs react with nucleophiles via an SN2 mechanism; therefore, the rate of the reaction depends on the strength and concentration of the nucleophile as well as the nature of the leaving group. Thus, the half-lives of the analogs are predictably longer in buffer than they are in buffer with added glutathione (a relatively strong nucleophile) and, under the same conditions, the bromo analog (better leaving group) reacts faster than the chloro analog.

SK-N-SH (NET ++) = experiment: Cytotoxicity, MTT assay, SK-N-SH; type: cell-based; settings: read-out: Cytotoxicity IC50
[3] = 24 hr assay, 1% EtOH, read-out: Cytotoxicity IC50
[4] = 24 hr assay, single agent, 1% DMSO, read-out: Cytotoxicity IC50
[5] = 48 hr assay (24 h exposure + 24 h recovery), Table 3, read-out: Cytotoxicity IC50
[6] = 48 hr assay, + 1.5 μM desipramine (40 min pre-treatment, then co-incubation), read-out: Cytotoxicity IC50, NET inhibition experiment
[7] = 48 hr assay, single agent, Table 4, read-out: Cytotoxicity IC50
[8] = 48 hr assay, without desipramine, read-out: Cytotoxicity IC50, NET inhibition experiment
[9] = groups dosed at 10, 15 and 20 mg/kg i.v.

Question: With `N=C(N)NCc1ccc(CCl)c(I)c1` [Chloromethyl-MIBG] as the compound, how does the IC50 (IMR32 (NET 0/+)) read?
Answer: 63 µM

Question: And the “displacement of [125I]MIBG (specific cell-bound radioactivity)” value (NET)?
Answer: 83%

Question: What about the “glutathione depletion compared to controls” value (SK—N-BE(2c) (high NET); 5 μM chloromethyl-MIBG, 7 hrs) of the same compound?
Answer: about 30%

Question: And the “glutathione concentration relative to control” value (SK—N-BE(2c) (high NET); 25 μM at t=0, measured at 4 hrs)?
Answer: 50%

Question: What about the IC50 (SK-N-BE(2c) (NET ++++); [3]) of the same compound?
Answer: 5 µM

Question: What about the IC50 (SK-N-BE(2c) (NET ++++); [4]) of the same compound?
Answer: 5.7 ± 1.5 µM

Question: What about the IC50 (SK-N-BE(2c) (NET ++++); [5]) of the same compound?
Answer: 4.63 ± 1.58 µM

Question: What about the IC50 (SK-N-BE(2c) (NET ++++); [6]) of the same compound?
Answer: 14.3 ± 1.7 µM

Question: And the IC50 (SK-N-BE(2c) (NET ++++); [7])?
Answer: 4.6 ± 1.6 µM

Question: And the IC50 (SK-N-BE(2c) (NET ++++); [8])?
Answer: 3.2 ± 0.6 µM

Question: What about the “increase in IC50 in presence of desipramine” value (SK-N-BE(2c) (NET ++++); with vs without desipramine) of the same compound?
Answer: ~5 fold

Question: What about the IC50 (MCF7 (NET 0); [3]) of the same compound?
Answer: 50 µM

Question: What about the IC50 (MCF7 (NET 0); [4]) of the same compound?
Answer: 56.9 ± 6.2 µM

Question: And the IC50 (MCF7 (NET 0); [5])?
Answer: 14.3 ± 2.13 µM

Question: What about the IC50 (MCF7 (NET 0); [6]) of the same compound?
Answer: 20.2 ± 1.9 µM

Question: What about the IC50 (MCF7 (NET 0); [7]) of the same compound?
Answer: 14.3 ± 2.1 µM

Question: And the IC50 (MCF7 (NET 0); [8])?
Answer: 19.8 ± 1.3 µM

Question: And the “glutathione depletion compared to controls” value (MCF7 (no NET))?
Answer: 8%

Question: And the “animal deaths over the course of the study” value ([1]; 5-20 mg/kg single i.v. dose, 21 days)?
Answer: no animal deaths

Question: And the MTD ([1]; HRLN female nu/nu mice, single i.v. dose, 21 days follow-up)?
Answer: > 20 mg/kg

Question: What about the “adverse signs upon drug injection” value [1, 9] of the same compound?
Answer: signs of hypoactivity, labored breathing, darkening of skin color, and/or seizures/tremors

Question: What about the “time for adverse symptoms to go away” value [1, 9] of the same compound?
Answer: ≤ 30 s

Question: What about the IC50 (SK-N-MC (NET ++)) of the same compound?
Answer: 25 µM

Question: What about the “half-life of drug solution” value ([2]; 1% DMSO in water, room temperature, estimated) of the same compound?
Answer: > 10 h

Question: What about the Half-life ([2]; 37° C., pH 7.4, BisTris buffer, 5% DMSO) of the same compound?
Answer: 9.67 ± 0.417 h

Question: What about the “Half-life w/10 eq GSH” value ([2]; 37° C., pH 7.4, BisTris buffer, 5% DMSO, 10 eq GSH) of the same compound?
Answer: 50.6 ± 3.2 s

Question: What about the IC50 (SK-N-SH (NET ++); 48 hr assay (24 h exposure + 24 h recovery), Table 3) of the same compound?
Answer: 18.4 ± 9.1 µM

Question: What about the IC50 (SK-N-SH (NET ++); 48 hr assay, single agent, Table 4) of the same compound?
Answer: 18.4 ± 9.1 µM
